Results on three compounds are retold here after patent publication US20070099237A1, “Reaction co-crystallization of molecular complexes or co-crystals” (The Regents of The University of Michigan, priority 2005, published 2007).

Converted amounts (≈) assume the structure as drawn. Like-named read-outs stand apart in the source and are kept apart here.

The nature of the series: Solubility of co-crystal and reactants in organic solvents at 25° C. The class given is physicochemical. Particulars: mean +/− deviation; for solubility: organic solvent or mixture, thermodynamic from solid. The method, then:
The predicted reduction in solubility of the co-crystal is borne out experimentally as illustrated, for example in FIG. 4, which uses the carbamazepine nicotinamide 1:1 co-crystal (CBZ:NCT) for illustration. The CBZ:NCT co-crystal is known; solubilities for the co-crystal and the reactants CBZ and NCT in three solvents (ethanol, […]) are given in the table.
Solubilities are given at 25° C. and are expressed as the mean +/− the deviation for a sample size of 3. It is noted that only in ethyl acetate is the co-crystal the least soluble component. Accordingly, the co-crystal can be precipitated from equimolar solutions of CBZ and NCT in ethyl acetate to produce the co-crystal by cooling or evaporation methods.

[1] abbreviates: 2-propanol, sample size 3, read-out: Solubility in 2-Propanol.
Where [2] appears, read: ethanol, sample size 3, read-out: Solubility in Ethanol.
Where [3] appears, read: ethyl acetate, sample size 3, read-out: Solubility in Ethyl acetate.

The term solubility denotes the dissolved amount per volume that the medium holds.

On to `NC(=O)N1c2ccccc2C=Cc2ccccc21.NC(=O)c1cccnc1` [CBZ:NCT, Carbamazepine:Nicotinamide co-crystal], for which the “Solubility in 2-Propanol” value (2-propanol, sample size 3) is 44 ± 3 mM. Moreover, the “Solubility in Ethanol” value (ethanol, sample size 3) amounted to 116 ± 3 mM. Also, the “Solubility in Ethyl acetate” value (ethyl acetate, sample size 3) was determined as 24 ± 1 mM.

Consider `NC(=O)N1c2ccccc2C=Cc2ccccc21` [CBZ(III), carbamazepine], for which the solubility amounted to 39 ± 3 mM (≈ 9.21 mg/mL) under setting [1], 108 ± 0.1 mM (≈ 25.5 mg/mL) under setting [2] and 44 ± 0.1 mM (≈ 10.4 mg/mL) under setting [3].

Regarding `NC(=O)c1cccnc1` [NCT(I), Nicotinamide], the solubility under setting [1] is 496 ± 4 mM (≈ 60.6 mg/mL), the solubility under setting [2] came out at 841 ± 8 mM (≈ 103 mg/mL) and the solubility under setting [3] was determined as 98 ± 2 mM (≈ 12 mg/mL).
